Source: ChEMBL document CHEMBL1140714, “In search of novel agents for therapy of tropical diseases and human immunodeficiency virus” (J Med Chem, 2008)
Calls of active or inactive are those of the source. No cut-off for these calls is given here.

Assays:
[1] = system: Staphylococcus aureus; experiment: Antibacterial activity against Staphylococcus aureus assessed as inhibition of biofilm formation; format: functional, organism-based
[2] = system: Plasmodium falciparum; experiment: Antiplasmodial activity against Plasmodium falciparum NF54 after 36 hrs; format: functional, organism-based; details: NF54, 36 h
[3] = system: Trypanosoma brucei brucei; experiment: Antitrypanosomal activity against Trypanosoma brucei brucei TC221; format: functional; details: read-out: ED50 (the source's name)
[4] = system: Leishmania major; experiment: Antileishmanial activity against Leishmania major MHOM/IL/81/FE/BNI infected in BALB/c mouse; format: functional
[5] = Cytotoxicity against mouse J774.1 cells after 48 hrs; format: cell-based; details: read-out: ED50
[6] = system: Plasmodium falciparum; experiment: Antiplasmodial activity against chloroquine-sensitive Plasmodium falciparum; format: functional, organism-based
[7] = system: Plasmodium falciparum; experiment: Antiplasmodial activity against Plasmodium falciparum NF54 after 24 hrs; format: functional, organism-based; details: NF54, 24 h
[8] = system: Plasmodium falciparum; experiment: Antiplasmodial activity against Plasmodium falciparum NF54 after 48 hrs; format: functional, organism-based; details: NF54, 48 h
[9] = system: Plasmodium falciparum; experiment: Antiplasmodial activity against Plasmodium falciparum NF54 after 72 hrs; format: functional, organism-based; details: NF54, 72 h
[10] = system: Plasmodium falciparum; experiment: Antiplasmodial activity against Plasmodium falciparum NF54 infected mice (Mus musculus) after 72 hrs; format: functional, organism-based; details: NF54, 72 h
[11] = system: Human immunodeficiency virus 1; experiment: Antiviral activity against HIV1 BaL replication in PM1 cells; format: functional
[12] = system: Human immunodeficiency virus 1; experiment: Antiviral activity against HIV1 NL4/3 replication in PM1 cells; format: functional
[13] = system: Plasmodium falciparum; experiment: Antiplasmodial activity against chloroquine-resistant Plasmodium falciparum; format: functional, organism-based
[14] = Plasmodium falciparum, read-out: IC50

| Compound | Activity [1] | EC50 [3] [µM] | ED50 [4] [µM] | CC50 at 48 h [5] [µM] | IC50 [6] | other results |
| --- | --- | --- | --- | --- | --- | --- |
| COC(=O)c1c(-c2ccccn2)n(Cc2ccc(Cl)cc2)c(-c2ccccn2)cc1=O | inactive | > 100 | >100 | > 100 |  | IC50 [2]: 9.4 µM |
| COC(=O)C1C(=O)C(C(=O)OC)[C@H](c2ccccn2)N(CCCCCCCC(=O)O)[C@@H]1c1ccccn1 (some centres not stated) |  |  | 50.34 | 33.8 |  | Activity [6]: inactive |
| CC[C@@H]1CC2(C[C@H](CC)N1)C(=O)N(CCCc1ccccc1)C(=O)N2c1ccccc1 (some centres not stated) | inactive | 13.4 | >100 | > 100 | Not Active |  |
| COC(=O)C1C(=O)C(C(=O)OC)[C@H](c2ccccn2)N(Cc2ccccn2)[C@@H]1c1ccccn1 (some centres not stated) | inactive | 4.62 | >100 | 29.9 | Not Active |  |
| COC(=O)c1c(-c2ccccn2)n(Cc2ccc(C)cc2)c(-c2ccccn2)cc1=O | inactive |  |  |  |  | IC50 [7]: 9.1 µM; IC50 [8]: 40 µM |
| CC[C@@H]1CC2(C[C@H](CC)N1)C(=O)N(CCc1ccccc1)C(=O)N2c1ccccc1 (some centres not stated) | inactive | 18.1 | 41.1 | 32.3 | Not Active |  |
| O/N=C/C1CCN(CCCc2ccccc2)CC1 | inactive | > 100 | >100 | > 100 |  |  |
| COC(=O)C1=C(O)C[C@H](c2ccccn2)N(Cc2ccc(Cl)cc2)[C@@H]1c1ccccn1 | inactive | 0.32 | 87.93 | 32.8 |  | IC50 [9]: 12 µM; IC50 [8]: 1.7 µM |
| NCCCC(N)(C(=O)O)C(F)F (configuration not stated) [EFLORNITHINE] |  | 22.9 |  |  |  |  |
| COC(=O)C1C(=O)C(C(=O)OC)[C@H](c2cccc([N+](=O)[O-])c2)N(Cc2ccccc2)[C@@H]1c1cccc([N+](=O)[O-])c1 (some centres not stated) | inactive |  | >100 | > 100 | Not Active |  |
| COC(=O)C1C(=O)C(C(=O)OC)[C@H](c2cccc([N+](=O)[O-])c2)N(Cc2ccc(Cl)cc2)[C@@H]1c1cccc([N+](=O)[O-])c1 (some centres not stated) | inactive |  | >100 | 46.6 | Not Active |  |
| COC(=O)C1C(=O)C(C(=O)OC)[C@H](c2ccc([N+](=O)[O-])cc2)N(Cc2ccccc2)[C@@H]1c1ccc([N+](=O)[O-])cc1 (some centres not stated) | inactive | 3.01 | >100 | 18.4 |  | IC50 [10]: 11.9 µM; Inhibition [11]: 20%; Inhibition [12]: 20% |
| Cl.Clc1cccc(Cl)c1CO/N=C/C1CCN(CCCc2ccccc2)CC1 | inactive |  | 30.72 | 28.4 |  | IC50 [9]: 8.29 µM; IC50 [7]: 11.8 µM |
| Clc1cccc(Cl)c1CON=C1CCN(CCCc2ccccc2)CC1 | inactive | > 100 | >100 | > 100 |  | IC50 [6, 14]: 31 µM |
| CCC[C@@H]1CC2(C[C@H](CCC)N1)C(=O)NC(=O)N2c1ccccc1 (some centres not stated) | inactive | > 100 | >100 | 36 | Not Active |  |
| CC[C@@H]1CC2(C[C@H](CC)N1Cc1ccccc1)C(=O)NC(=O)N2c1ccccc1 (some centres not stated) | inactive | 31 | >100 | > 100 | Not Active |  |
| CC[C@@H]1CC2(C[C@H](CC)N1Cc1ccccc1)C(=O)N(Cc1ccc([N+](=O)[O-])cc1)C(=O)N2c1ccccc1 (some centres not stated) | inactive | 25.4 | >100 | > 100 | Not Active |  |
| COC(=O)C1=C(c2ccccn2)N(Cc2ccccc2)C(c2ccccn2)CC1=O (configuration not stated) | inactive | > 100 |  |  |  | IC50 [7]: 4.7 µM |
| C[C@@H]1CC2(C[C@H](C)N1)C(=O)NC(=O)N2c1ccccc1 (some centres not stated) | inactive | > 100 | >100 | > 100 | Not Active |  |
| COC(=O)C1C(=O)C(C(=O)OC)[C@H](c2ccccn2)N(CCCC(=O)O)[C@@H]1c1ccccn1 (some centres not stated) | inactive | 19.3 | >100 | 46 | Not Active |  |
| COC(=O)C1=C(c2ccccn2)N(Cc2ccc(Cl)cc2)C(c2ccccn2)CC1=O (configuration not stated) | inactive |  |  |  |  | IC50 [7]: 18 µM |
| N[C@@H](Cn1ccc(=O)c(O)c1)C(=O)O [L-MIMOSINE] |  |  |  |  |  | IC50 [13]: 39 µM; IC50 [6, 14]: 32 µM |
| NC(Cn1ccc(=O)c(O)c1)C(=O)O (configuration not stated) [MIMOSINE] |  | > 100 |  |  |  | IC50 [13]: 39 µM; IC50 [6, 14]: 32 µM |
